The source of these data is patent US7718703B2, “Norvaline derivative and method for preparation thereof” (Mitsubishi Tanabe Pharma Corporation, priority 2006, dated 2010).

Some results are limits rather than exact numbers.

One data set concerns the target T1, human GlyT2 (Homo sapiens, UniProt Q9Y345).
T1 construct: expressed in transfected cells
T1 sequence (Q9Y345 1-797): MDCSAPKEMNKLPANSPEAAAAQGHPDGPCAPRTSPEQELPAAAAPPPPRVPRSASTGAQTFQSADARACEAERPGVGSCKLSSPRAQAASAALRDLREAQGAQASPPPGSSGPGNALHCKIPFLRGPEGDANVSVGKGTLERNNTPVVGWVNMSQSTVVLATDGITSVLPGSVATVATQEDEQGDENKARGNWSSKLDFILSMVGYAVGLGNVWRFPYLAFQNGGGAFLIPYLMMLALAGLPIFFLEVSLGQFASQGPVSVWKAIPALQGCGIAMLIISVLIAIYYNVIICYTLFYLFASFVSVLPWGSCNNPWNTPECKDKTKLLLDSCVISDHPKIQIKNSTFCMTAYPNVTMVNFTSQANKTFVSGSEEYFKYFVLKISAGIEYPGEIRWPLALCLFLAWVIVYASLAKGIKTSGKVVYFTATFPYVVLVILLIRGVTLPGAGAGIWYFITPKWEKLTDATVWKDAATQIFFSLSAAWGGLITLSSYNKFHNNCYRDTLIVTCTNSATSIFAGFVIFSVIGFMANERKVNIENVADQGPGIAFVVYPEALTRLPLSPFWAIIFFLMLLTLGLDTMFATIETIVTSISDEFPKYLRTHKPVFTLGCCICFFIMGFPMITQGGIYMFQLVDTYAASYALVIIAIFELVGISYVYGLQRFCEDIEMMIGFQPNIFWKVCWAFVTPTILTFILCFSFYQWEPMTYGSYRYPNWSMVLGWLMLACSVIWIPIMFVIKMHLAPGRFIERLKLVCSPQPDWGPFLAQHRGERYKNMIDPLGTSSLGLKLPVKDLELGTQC
The experiment in a line: Glycine uptake assay (GlyT2 assay). Format: cell-based. The following applies: HEK 293 cells stably transfected with human GlyT2; 14C-glycine 10 μM; room temperature 2-3 hours. How it is done: Experiment 1 Glycine uptake assay (GlyT2 and GlyT1 assay)
Inhibitory activity on GlyT2 and GlyT1 was examined by glycine uptake assays using cells expressing GlyT2 or GlyT1, as described in the literatures, Caulfield et al. (J. Med. Chem., 2001, 44, 2679-2682), Williams et al. (Anal. Biochem., 2003, 321, 31-37, etc.), and/or Morrow et al. (FEBS Letters, 1998, 439: 334-340).
Briefly, the assays were performed as follows.
HEK 293 cells stably transfected with either human GlyT2 or human GlyT1b were used. The cells were grown in 96-well Cytostar-T™ scintillating microplates (20,000-40,000 cells/well) overnight before removal of culture medium and addition of HEPES buffered saline containing glycine (10 μM) labeled with ^14C and varying concentrations of test compounds.
Plates were incubated at room temperature for 2-3 hours, and then, the plates were counted in a plate counter.
Data were analyzed by the sigmoid dose-response curve fitting to produce IC50 (the concentration of test compound producing 50% inhibition) values.

`CCCCCCOc1ccc(C(=O)N[C@@H](CCC)C(=O)NCCN(C)C)cc1` [Example 1.001, N-[(1S)-1-[[[2-(dimethylamino)ethyl]amino]carbonyl]butyl]-4-(hexyloxy)benzamide]: the melting point was in the range of 103 to 104 °C.
The molecule `CCC[C@H](NC(=O)c1cc(OC)c(OCc2ccccc2)c(OC)c1)C(=O)NCC1(N(C)C)CCCC1` [Example 1.026] came in with an IC50 against human GlyT2 of less than 10 nM.

By melting point is commonly meant the temperature, or range, at which the solid turns liquid. For orientation: IC50 means the point on the concentration scale where inhibition reaches its midpoint.
